Values after ≈ are worked out from the molar mass of the structure shown. Values belong to the compound of their own block, whether it stands above or below them.
How the values were obtained:
[1] = molecular target: T1, B-cell lymphoma 6 protein (Homo sapiens, UniProt P41182); assay: Binding affinity to BCL6 (unknown origin) assessed as ratio of Kinact/Ki incubated for 4 hrs by IPC assay
[2] = Aqueous solubility of compound; assay type: physicochemical; conditions: buffer
[3] = molecular target: T1, B-cell lymphoma 6 protein; assay: Binding affinity to BCL6 BTB domain (5 to 129 residues) (unknown origin) expressed in Escherichia coli by SPR analysis
[4] = molecular target: T1, B-cell lymphoma 6 protein; assay: Binding affinity to BCL6 BTB domain (5 to 129 residues) (unknown origin) expressed in Escherichia coli using 5-TAMRA-RSEIISTAPSSWVVPGP as substrate incubated for 1 hrs by FP assay
[5] = molecular target: T1, B-cell lymphoma 6 protein; assay: Inhibition of D2-SMRT peptide binding to human BCL6 BTB-POZ domain incubated for 60 mins by TR-FRET assay
[6] = molecular target: T1, B-cell lymphoma 6 protein; assay: Displacement AF647-BCOR peptide from human BCL6 BTB-POZ domain incubated for 60 mins by TR-FRET assay
[7] = molecular target: T1, B-cell lymphoma 6 protein; assay: Displacement AF647-NCOR peptide from human BCL6 BTB-POZ domain incubated for 60 mins by TR-FRET assay
Farage = assay: Antitumor activity against BCL6 dependent human Farage cells assessed as cell growth inhibition; assay type: functional, cell-based
OCI-Ly7 [8] = assay: Antitumor activity against BCL6 dependent human OCILY7 cells assessed as cell growth inhibition; assay type: functional, cell-based
SU-DHL-6 = assay: Antitumor activity against BCL6 dependent human SU-DHL-6 cells assessed as cell growth inhibition; assay type: functional, cell-based
L02 = assay: Antitumor activity against human L02 cells assessed as cell growth inhibition; assay type: functional, cell-based
DOHH-2 = assay: Antitumor activity against BCL6 dependent human DOHH-2 cells assessed as cell growth inhibition; assay type: functional, cell-based
[9] = molecular target: T1, B-cell lymphoma 6 protein; assay: Inhibition of BCL6 (unknown origin) by HTRF assay
SUD4 = assay: Antitumor activity against BCL6 dependent human SU-DHL-4 cells assessed as cell growth inhibition; assay type: functional, cell-based
[10] = molecular target: T1, B-cell lymphoma 6 protein; assay: Binding affinity to BCL6 BTB domain (unknown origin) by SPR analysis
[11] = Binding affinity to wild type full length BCL6 BTB domain SMRT BBD motif sequence mutant (unknown origin) transfected in human HEK293 cells by electrophoretic mobility shift assay; assay type: cell-based
OCI-Ly1 = assay: Antiproliferative activity against human OCI-Ly1 cells assessed as growth inhbition by measuring metabolic viability incubated for 48 hrs by fluorometric resazurin reduction method; assay type: functional, cell-based; conditions: OCI-Ly1, 48 h
OCI-Ly7 [12] = assay: Antiproliferative activity against human OCILY7 cells assessed as growth inhbition by measuring metabolic viability incubated for 48 hrs by fluorometric resazurin reduction method; assay type: functional, cell-based; conditions: OCI-Ly7, 48 h
[13] = molecular target: T1, B-cell lymphoma 6 protein; assay: Binding affinity to wild type full length BCL6 BTB domain having SMRT BBD motif sequence (unknown origin) transfected in human HEK293 cells by electrophoretic mobility shift assay; assay type: cell-based
OCI-Ly10 = assay: Antiproliferative activity against human OCI-Ly10 cells assessed as growth inhbition by measuring metabolic viability incubated for 48 hrs by fluorometric resazurin reduction method; assay type: functional, cell-based; conditions: OCI-Ly10, 48 h

Compound: CCC(=O)NCCN1C(=O)C(CCCCNC(=O)CCl)Oc2cc(Nc3cc(OC4CCOCC4)c([N+](=O)[O-])cc3Cl)ccc21 (stereo unspecified)
Ratio [1]: 1.9 10^4/M/s

Compound: C[C@@H](NC(=O)COC(=O)CCN1C(=O)/C(=C2/C(=O)Nc3ccc(Cl)cc32)SC1=S)C(=O)N[C@@H](CCC(=O)O)C(=O)O
solubility [2]: 0.218 µg/mL (≈ 0.348 µM)

Compound: Cc1cc(C)n(-c2ncc(Cl)c(Nc3ccc(Cl)cc3)n2)n1
Kd [3]: 20000 nM
Kd [4]: 18000 nM

Compound: C[C@@H]1CN(c2ncc(F)c(Nc3ccc(NC(=O)c4cccc(Br)n4)cc3)n2)C[C@H](C)N1
IC50 (Farage): 1100 nM
IC50 (OCI-Ly7 [8]): 1100 nM
IC50 (SU-DHL-6): 1100 nM
IC50 (L02): 21600 nM
IC50 (DOHH-2): 1100 nM
Kd [9]: 1370 nM
IC50 (SUD4): 1390 nM
Kd [10]: 1610 nM

Now from value to compound, other results behind:

Ratio [1]: 3 10^1/M/s
Compound: O=C(CCl)NCCCCn1c(=O)[nH]c2ccc(Nc3ccc([N+](=O)[O-])cc3Cl)cc21

IC50 [5]: 10 nM
IC50 [6]: 25.1 nM
IC50 [7]: 25.1 nM
Compound: Cc1ncccc1[C@H]1C[C@@H](c2cccc3nc(N)ccc23)Nc2c(F)cnn21

IC50 (OCI-Ly1): 11300 nM
IC50 (OCI-Ly7 [12]): 11300 nM
Kd [13]: 10200 nM
IC50 (OCI-Ly10): 11300 nM
Compound: H-HHHHHHPTATHAGLVATVKEAGRSIHEI-OH
Kd [11]: 148000 nM

— ChEMBL document CHEMBL5150055, “B-cell Lymphoma 6 Inhibitors: Current Advances and Prospects of Drug Development for Diffuse Large B-cell Lymphomas” (J Med Chem, 2022)
